Results reported in PubChem BioAssay AID248 (DTP/NCI, 2004).
Several values for one entry are separate records, joined by “and”; a condition that tells them apart may be missing. Equal entries are not always repeated. Toxic doses and inconclusive results are not listed. Rule as the data show it: active = T/C of 150% or more; inactive = T/C below 125%. Peptide text beside a SMILES is read from it. * marks the point of attachment. Cbz = O=C(OCc1ccccc1)*

Test system: L1210 leukemia ip in BDF1 mice, survival T/C
Test: NCI In Vivo Anticancer Drug Screen. Data for tumor model L1210 Leukemia (intraperitoneal) in B6D2F1 (BDF1) mice
Details: endpoint: mean survival time, higher = longer survival
Procedure, shortened: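 Mice bearing the transplanted tumor received compound or vehicle. Survival of the treated group was divided by that of the vehicle-treated control group to give the ratio.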

[1] = dose: 100.0 mg/kg/injection, schedule: Q01DX009 (ip), vehicle: Klucel (hydroxypropylcellulose) (HPC)
[2] = dose: 100.0 mg/kg/injection, schedule: Q04DX003 (ip), vehicle: Klucel (hydroxypropylcellulose) (HPC)
[3] = dose: 200.0 mg/kg/injection, schedule: Q04DX003 (ip), vehicle: Klucel (hydroxypropylcellulose) (HPC)
[4] = dose: 400.0 mg/kg/injection, schedule: Q04DX003 (ip), vehicle: Klucel (hydroxypropylcellulose) (HPC)
[5] = dose: 100.0 mg/kg/injection, schedule: Q01DX009 (ip), vehicle: saline with Tween-80
[6] = dose: 100.0 mg/kg/injection, schedule: Q04DX003 (ip), vehicle: saline with Tween-80
[7] = dose: 200.0 mg/kg/injection, schedule: Q01DX009 (ip), vehicle: saline with Tween-80
[8] = dose: 200.0 mg/kg/injection, schedule: Q04DX003 (ip), vehicle: saline with Tween-80
[9] = dose: 400.0 mg/kg/injection, schedule: Q01DX009 (ip), vehicle: saline with Tween-80
[10] = dose: 400.0 mg/kg/injection, schedule: Q04DX003 (ip), vehicle: saline with Tween-80
[11] = dose: 50.0 mg/kg/injection, schedule: Q01DX009 (ip), vehicle: saline with Tween-80
[12] = dose: 100.0 mg/kg/injection, schedule: Q01DX001 (ip), vehicle: saline
[13] = dose: 200.0 mg/kg/injection, schedule: Q01DX001 (ip), vehicle: saline
[14] = dose: 400.0 mg/kg/injection, schedule: Q01DX001 (ip), vehicle: saline
[15] = dose: 25.0 mg/kg/injection, schedule: Q01DX009 (ip), vehicle: Klucel (hydroxypropylcellulose) (HPC)
[16] = dose: 25.0 mg/kg/injection, schedule: Q04DX003 (ip), vehicle: Klucel (hydroxypropylcellulose) (HPC)
[17] = dose: 50.0 mg/kg/injection, schedule: Q04DX003 (ip), vehicle: Klucel (hydroxypropylcellulose) (HPC)
[18] = dose: 100.0 mg/kg/injection, schedule: Q04DX002 (ip), vehicle: Klucel (hydroxypropylcellulose) (HPC)
[19] = dose: 200.0 mg/kg/injection, schedule: Q04DX002 (ip), vehicle: Klucel (hydroxypropylcellulose) (HPC)
[20] = dose: 75.0 mg/kg/injection, schedule: Q01DX001 (ip), vehicle: saline
[21] = dose: 150.0 mg/kg/injection, schedule: Q01DX001 (ip), vehicle: saline

Measured: T/C

Cc1cccc(C)c1NC(=O)Nc1ccc(Cl)cc1
inactive: [1] 97 % of control | [2] 97 % of control | dose: 200.0 mg/kg/injection, schedule: Q01DX009 (ip), vehicle: Klucel (hydroxypropylcellulose) (HPC) 96 % of control | [3] 100 % of control | dose: 400.0 mg/kg/injection, schedule: Q01DX009 (ip), vehicle: Klucel (hydroxypropylcellulose) (HPC) 91 % of control | [4] 95 % of control

CC1=C(C)CC2C(=O)c3c(O)ccc(O)c3C(=O)C2C1 (stereo not given)
inactive: dose: 100.0 mg/kg/injection, schedule: Q04DX002 (ip), vehicle: saline with Tween-80 91 % of control | dose: 200.0 mg/kg/injection, schedule: Q04DX002 (ip), vehicle: saline with Tween-80 95 % of control | dose: 400.0 mg/kg/injection, schedule: Q04DX002 (ip), vehicle: saline with Tween-80 91 % of control

S=c1cc(-c2ccccc2)ss1
inactive: [5] 98 % of control | [6] 93 % of control and 102 % of control | [7] 89 % of control | [8] 91 % of control and 100 % of control | [9] 96 % of control | [10] 96 % of control and 91 % of control

O=C(O)c1cc(S(=O)(=O)F)cc(S(=O)(=O)F)c1
inactive: [5] 86 % of control

CC(C)C(=O)c1ccccc1C(=O)O
inactive: [11] 93 % of control | [5] 93 % of control | [7] 93 % of control

CC(=O)c1cc(C)[nH]c1C
inactive: dose: 100.0 mg/kg/injection, schedule: Q01DX009 (ip), vehicle: saline sonified 100 % of control | [2] 89 % of control | [3] 106 % of control | dose: 400.0 mg/kg/injection, schedule: Q01DX009 (ip), vehicle: saline sonified 89 % of control

CC(C)(C)CC(C)(C)N(CSc1ccc(Br)cc1)CSc1ccc(Br)cc1
inactive: [12] 89 % of control | [13] 90 % of control | [14] 93 % of control

CCC(CO)NC(=O)/C=C/c1ccc(Cl)cc1 (stereo not given)
inactive: dose: 100.0 mg/kg/injection, schedule: Q01DX001 (ip), vehicle: saline with Tween-80 101 % of control | [6] 110 % of control | dose: 200.0 mg/kg/injection, schedule: Q01DX001 (ip), vehicle: saline with Tween-80 100 % of control | [8] 108 % of control | dose: 400.0 mg/kg/injection, schedule: Q01DX001 (ip), vehicle: saline with Tween-80 92 % of control | [10] 98 % of control

Ic1ccc(C2CC(c3ccccc3)=NN2c2ccccc2)cc1 (stereo not given)
inactive: [5] 96 % of control | [7] 92 % of control | [9] 91 % of control

O=C(O)c1ccccc1Br.[Ni]
inactive: dose: 3.0 mg/kg/injection, schedule: Q01DX009 (ip), vehicle: Klucel (hydroxypropylcellulose) (HPC) 91 % of control | dose: 6.0 mg/kg/injection, schedule: Q01DX009 (ip), vehicle: Klucel (hydroxypropylcellulose) (HPC) 94 % of control | dose: 12.0 mg/kg/injection, schedule: Q01DX009 (ip), vehicle: Klucel (hydroxypropylcellulose) (HPC) 94 % of control | dose: 12.5 mg/kg/injection, schedule: Q01DX001 (ip), vehicle: Klucel (hydroxypropylcellulose) (HPC) 97 % of control | dose: 25.0 mg/kg/injection, schedule: Q01DX001 (ip), vehicle: Klucel (hydroxypropylcellulose) (HPC) 93 % of control | [15] 88 % of control | dose: 50.0 mg/kg/injection, schedule: Q01DX001 (ip), vehicle: Klucel (hydroxypropylcellulose) (HPC) 103 % of control

CN(C(=O)c1cc([N+](=O)[O-])ccc1O)c1ccc([N+](=O)[O-])cc1
inactive: [12] 97 % of control | [13] 95 % of control | [14] 97 % of control

Nc1ccc(-c2ccc(NC(=O)C(=O)O)cc2)cc1
inactive: dose: 12.5 mg/kg/injection, schedule: Q04DX003 (ip), vehicle: Klucel (hydroxypropylcellulose) (HPC) 101 % of control | [15] 95 % of control | [16] 97 % of control | dose: 50.0 mg/kg/injection, schedule: Q01DX009 (ip), vehicle: Klucel (hydroxypropylcellulose) (HPC) 97 % of control | [17] 111 % of control | [1] 100 % of control | [2] 111 % of control

COc1ccc(COc2ccc(Cl)cc2)cc1OC
inactive: [6] 109 % of control | [8] 98 % of control | [10] 101 % of control

CN(C(=O)NCCCl)c1cccc2c1CCCC2
inactive: dose: 100.0 mg/kg/injection, schedule: Q01DX001 (ip), vehicle: Klucel (hydroxypropylcellulose) (HPC) 97 % of control | dose: 200.0 mg/kg/injection, schedule: Q01DX001 (ip), vehicle: Klucel (hydroxypropylcellulose) (HPC) 105 % of control | dose: 400.0 mg/kg/injection, schedule: Q01DX001 (ip), vehicle: Klucel (hydroxypropylcellulose) (HPC) 111 % of control

C=C(Br)S(=O)(=O)C(=C)Br
inactive: dose: 6.25 mg/kg/injection, schedule: Q04DX002 (ip), vehicle: alcohol 101 % of control | dose: 12.5 mg/kg/injection, schedule: Q04DX002 (ip), vehicle: alcohol 111 % of control | dose: 25.0 mg/kg/injection, schedule: Q04DX002 (ip), vehicle: alcohol 101 % of control

CCC(Cl)(c1ccccc1)C(O)C(=O)OC(C)C (stereo not given)
inactive: [18] 106 % of control | [19] 103 % of control | dose: 400.0 mg/kg/injection, schedule: Q04DX002 (ip), vehicle: Klucel (hydroxypropylcellulose) (HPC) 106 % of control

Nc1cccc(OCCOc2cccc([N+](=O)[O-])c2)c1
inactive: [12] 101 % of control | [13] 95 % of control | [14] 98 % of control

O=C1c2ccccc2C(=O)N1/N=C/c1cc(Cl)cc(Cl)c1O
inactive: [20] 91 % of control | [21] 93 % of control | dose: 300.0 mg/kg/injection, schedule: Q01DX001 (ip), vehicle: saline 93 % of control

NCCc1cc(O)c(O)cc1O
inactive: dose: 25.0 mg/kg/injection, schedule: Q01DX009 (ip), vehicle: saline 102 % of control and 107 % of control | dose: 50.0 mg/kg/injection, schedule: Q01DX009 (ip), vehicle: saline 93 % of control and 103 % of control | dose: 100.0 mg/kg/injection, schedule: Q01DX009 (ip), vehicle: saline 93 % of control and 91 % of control | dose: 200.0 mg/kg/injection, schedule: Q01DX009 (ip), vehicle: saline 88 % of control | dose: 400.0 mg/kg/injection, schedule: Q01DX009 (ip), vehicle: saline 86 % of control

COC(=O)c1ccccc1C(=O)OCC(C)(C)[N+](=O)[O-]
inactive: [2] 100 % of control | [3] 97 % of control | [4] 107 % of control

C1CC2C3CCC(C3)C2C1 (stereo not given)
inactive: [6] 94 % of control | [8] 90 % of control | [10] 97 % of control

CCOC(=O)NNC(=O)OCC
inactive: dose: 12.5 mg/kg/injection, schedule: Q01DX009 (ip), vehicle: saline with Tween-80 100 % of control | dose: 25.0 mg/kg/injection, schedule: Q01DX009 (ip), vehicle: saline with Tween-80 97 % of control | [16] 97 % of control | [11] 96 % of control and 86 % of control | [17] 98 % of control | dose: 75.0 mg/kg/injection, schedule: Q01DX001 (ip), vehicle: acetone 97 % of control | [5] 92 % of control | [2] 91 % of control | dose: 150.0 mg/kg/injection, schedule: Q01DX001 (ip), vehicle: acetone 108 % of control

Nc1cccc2c1-c1ccccc1C2=O
inactive: dose: 50.0 mg/kg/injection, schedule: Q04DX002 (ip), vehicle: Klucel (hydroxypropylcellulose) (HPC) 103 % of control | [18] 88 % of control | [19] 103 % of control

COc1ccc(-n2cc3c(=O)nccc-3c3ccccc32)cc1OC
inactive: [20] 95 % of control | [21] 89 % of control

NC(=O)CNC(=O)CNC(=O)OCc1ccccc1 (Cbz-Gly-Gly-NH2)
inactive: [5] 100 % of control | [7] 92 % of control | [9] 92 % of control

CC(=O)c1ccccc1C
inactive: [12] 104 % of control | [13] 112 % of control
